Source: paper PMC10885137, “Site-Directed Mutagenesis of VvCYP76F14 (Cytochrome P450) Unveils Its Potential for Selection in Wine Grape Varieties Linked to the Development of Wine Bouquet” (Journal of Agricultural and Food Chemistry, 2024)

Experiments:
Settings in all cases: 1 mM NADPH, ATR1 reductase, 100 mM Na/K phosphate pH 5.0, 26 °C, 1 h
[1] = target: VvCYP76F14 (from "L35", full-bodied) (Vitis vinifera, UniProt A0A1B2ZBX8, F435A, form not given)
From the text: (§1) UPLC-MS/MS substrate depletion kinetics on VvCYP76F14 (from "L35", full-bodied)

[2] = target: VvCYP76F14 (from "L35", full-bodied) (Vitis vinifera, UniProt A0A1B2ZBX8, I120L, form not given)
Sequence of VvCYP76F14 (from "L35", full-bodied) (Vitis vinifera, UniProt A0A1B2ZBX8, I120L, form not given) (A0A1B2ZBX8 entry or part of it I120L, form open): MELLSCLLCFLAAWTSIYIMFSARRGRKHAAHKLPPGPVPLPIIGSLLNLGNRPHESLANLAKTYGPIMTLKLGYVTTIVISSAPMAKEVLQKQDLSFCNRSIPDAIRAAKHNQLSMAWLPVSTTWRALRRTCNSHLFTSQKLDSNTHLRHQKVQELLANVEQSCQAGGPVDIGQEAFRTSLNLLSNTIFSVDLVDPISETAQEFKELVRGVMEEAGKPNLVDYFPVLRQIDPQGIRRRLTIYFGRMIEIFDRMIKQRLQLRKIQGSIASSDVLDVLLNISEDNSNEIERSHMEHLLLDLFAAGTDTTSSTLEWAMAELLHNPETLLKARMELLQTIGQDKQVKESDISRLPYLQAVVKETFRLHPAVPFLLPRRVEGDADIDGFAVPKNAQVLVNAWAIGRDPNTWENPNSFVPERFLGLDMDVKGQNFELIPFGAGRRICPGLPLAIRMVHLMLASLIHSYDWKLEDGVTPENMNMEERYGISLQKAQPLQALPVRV
From the text: as §1

[3] = target: VvCYP76F14 (from "L35", full-bodied) (Vitis vinifera, UniProt A0A1B2ZBX8, L298V, form not given)
Sequence of VvCYP76F14 (from "L35", full-bodied) (Vitis vinifera, UniProt A0A1B2ZBX8, L298V, form not given) (A0A1B2ZBX8 entry or part of it L298V, form open): as the sequence (A0A1B2ZBX8 entry or part of it I120L, form open) above, with L120I, L298V counted along it
From the text: as §1

[4] = target: VvCYP76F14 (from "L35", full-bodied) (Vitis vinifera, UniProt A0A1B2ZBX8)
Sequence of VvCYP76F14 (from "L35", full-bodied) (Vitis vinifera, UniProt A0A1B2ZBX8) (A0A1B2ZBX8 entry or part of it): as the sequence (A0A1B2ZBX8 entry or part of it I120L, form open) above, with L120I counted along it
From the text: as §1

[5] = target: VvCYP76F14 (from "L35", full-bodied) (Vitis vinifera, UniProt A0A1B2ZBX8, D306A, form not given)
Sequence of VvCYP76F14 (from "L35", full-bodied) (Vitis vinifera, UniProt A0A1B2ZBX8, D306A, form not given) (A0A1B2ZBX8 entry or part of it D306A, form open): as the sequence (A0A1B2ZBX8 entry or part of it I120L, form open) above, with L120I, D306A counted along it
From the text: as §1

[6] = target: VvCYP76F14 (from "L35", full-bodied) (Vitis vinifera, UniProt A0A1B2ZBX8, S485A, form not given)
Sequence of VvCYP76F14 (from "L35", full-bodied) (Vitis vinifera, UniProt A0A1B2ZBX8, S485A, form not given) (A0A1B2ZBX8 entry or part of it S485A, form open): as the sequence (A0A1B2ZBX8 entry or part of it I120L, form open) above, with L120I, S485A counted along it
From the text: as §1

[7] = target: VvCYP76F14 (from "L35", full-bodied) (Vitis vinifera, UniProt A0A1B2ZBX8, G304A, form not given)
Sequence of VvCYP76F14 (from "L35", full-bodied) (Vitis vinifera, UniProt A0A1B2ZBX8, G304A, form not given) (A0A1B2ZBX8 entry or part of it G304A, form open): as the sequence (A0A1B2ZBX8 entry or part of it I120L, form open) above, with L120I, G304A counted along it
From the text: as §1

[8] = target: VvCYP76F14 (from "L35", full-bodied) (Vitis vinifera, UniProt A0A1B2ZBX8, T188A, form not given)
Sequence of VvCYP76F14 (from "L35", full-bodied) (Vitis vinifera, UniProt A0A1B2ZBX8, T188A, form not given) (A0A1B2ZBX8 entry or part of it T188A, form open): as the sequence (A0A1B2ZBX8 entry or part of it I120L, form open) above, with L120I, T188A counted along it
From the text: as §1

Sequence of VvCYP76F14 (from "L35", full-bodied) (Vitis vinifera, UniProt A0A1B2ZBX8, F435A, form not given) (A0A1B2ZBX8 entry or part of it F435A, form open): as the sequence (A0A1B2ZBX8 entry or part of it I120L, form open) above, with L120I, F435A counted along it

C=CC(C)(O)CCC=C(C)C (centres unmarked) [linalool]
Km [1]: 288 ± 19.3 µM | Km [2]: 156 ± 12.8 µM | Km [3]: 74.7 ± 7.89 µM

C=CC(C)(O)CC/C=C(\C)C=O (centres unmarked) [(E)-8-oxolinalool]
Km [4]: 41.4 ± 4.93 µM | Km [5]: 269 ± 17.7 µM | Km [6]: 172 ± 9.99 µM

C=CC(C)(O)CC/C=C(\C)CO (centres unmarked) [(E)-8-hydroxylinalool]
Km [7]: 170 ± 13.6 µM | Km [8]: 77.4 ± 8.56 µM
